Values after ≈ are worked out from the molar mass of the structure shown.
Assays:
Neprilysin = Neprilysin (Homo sapiens, UniProt P08473); experiment: Inhibition of human NEP using N-Dansyl-D-Ala-Gly-p-nitro-Phe-Gly as substrate preincubated for 10 mins followed by substrate addition measured after 2 hrs by spectrophotometric analysis
[1] = biological target: T1, Endothelin-converting enzyme 1 (Homo sapiens, UniProt P42892); experiment: Inhibition of ECE-1 in human NCO cells using Mca-Arg-Pro-Pro-GlyPhe-Ser-Ala-DpaOH as substrate after 45 mins by fluorescence assay; format: cell-based
T1 sequence (P42892 whole entry): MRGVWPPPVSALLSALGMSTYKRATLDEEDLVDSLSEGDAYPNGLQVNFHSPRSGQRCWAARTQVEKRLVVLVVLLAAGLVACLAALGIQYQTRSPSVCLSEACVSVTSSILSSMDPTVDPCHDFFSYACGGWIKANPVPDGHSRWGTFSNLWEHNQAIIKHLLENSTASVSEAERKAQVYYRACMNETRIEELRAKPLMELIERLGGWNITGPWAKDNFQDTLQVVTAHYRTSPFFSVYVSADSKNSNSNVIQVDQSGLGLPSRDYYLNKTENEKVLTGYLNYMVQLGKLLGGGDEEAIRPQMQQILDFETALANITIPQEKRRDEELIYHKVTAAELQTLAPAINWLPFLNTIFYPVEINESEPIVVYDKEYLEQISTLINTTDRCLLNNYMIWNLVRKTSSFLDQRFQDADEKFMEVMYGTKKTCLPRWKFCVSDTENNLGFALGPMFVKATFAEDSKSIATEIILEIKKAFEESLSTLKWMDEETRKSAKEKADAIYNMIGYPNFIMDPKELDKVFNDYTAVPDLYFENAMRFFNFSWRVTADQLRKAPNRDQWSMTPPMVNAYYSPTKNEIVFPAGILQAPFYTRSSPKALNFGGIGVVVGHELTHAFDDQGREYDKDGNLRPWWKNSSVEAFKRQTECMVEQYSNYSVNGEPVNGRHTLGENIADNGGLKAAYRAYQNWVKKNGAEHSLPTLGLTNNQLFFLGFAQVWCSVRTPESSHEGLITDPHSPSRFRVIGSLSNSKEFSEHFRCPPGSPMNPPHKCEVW

[2] = biological target: Angiotensin-converting enzyme (Homo sapiens, UniProt P12821); experiment: Inhibition of human ACE-1 using Abz-Gly-p-nitro-Phe-Pro-OH as substrate preincubated for 10 mins followed by substrate addition measured after 17 hrs by spectrophotometric analysis
[3] = Half life in rat plasma at 10 uM by LC-MS/MS; format: ADME, cell-free
[4] = Solubility of the compound in PBS buffer at pH 7.4 after 24 hrs by LC-MS/MS analysis; format: physicochemical
[5] = 1-octanol-PBS distribution coefficient, Log D of the compound at pH 7.4 after 2 hrs by LC-MS analysis; format: physicochemical
[6] = Stability of the compound assessed as GSH adduct formation by LC-MS analysis; format: ADME

Sequence of Neprilysin (P08473 whole entry): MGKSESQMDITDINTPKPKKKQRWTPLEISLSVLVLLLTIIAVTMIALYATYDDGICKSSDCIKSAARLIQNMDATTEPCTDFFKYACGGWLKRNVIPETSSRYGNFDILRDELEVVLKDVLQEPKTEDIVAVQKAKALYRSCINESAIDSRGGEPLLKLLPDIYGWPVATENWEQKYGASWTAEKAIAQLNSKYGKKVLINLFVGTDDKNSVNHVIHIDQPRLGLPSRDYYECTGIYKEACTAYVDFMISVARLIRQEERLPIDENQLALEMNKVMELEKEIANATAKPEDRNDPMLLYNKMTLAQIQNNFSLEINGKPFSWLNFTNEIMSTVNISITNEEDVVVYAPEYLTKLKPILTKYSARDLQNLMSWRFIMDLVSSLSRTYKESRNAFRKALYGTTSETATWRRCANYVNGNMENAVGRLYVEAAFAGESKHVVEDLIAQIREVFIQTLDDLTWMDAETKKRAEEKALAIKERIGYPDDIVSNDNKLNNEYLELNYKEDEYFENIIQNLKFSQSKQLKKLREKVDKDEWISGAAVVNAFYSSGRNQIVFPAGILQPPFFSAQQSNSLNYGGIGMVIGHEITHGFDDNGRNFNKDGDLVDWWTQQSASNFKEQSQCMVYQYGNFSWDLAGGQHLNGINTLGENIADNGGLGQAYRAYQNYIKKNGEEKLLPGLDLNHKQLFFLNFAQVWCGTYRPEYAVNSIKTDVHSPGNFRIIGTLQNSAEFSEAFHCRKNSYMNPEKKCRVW
Sequence of Angiotensin-converting enzyme (P12821 whole entry): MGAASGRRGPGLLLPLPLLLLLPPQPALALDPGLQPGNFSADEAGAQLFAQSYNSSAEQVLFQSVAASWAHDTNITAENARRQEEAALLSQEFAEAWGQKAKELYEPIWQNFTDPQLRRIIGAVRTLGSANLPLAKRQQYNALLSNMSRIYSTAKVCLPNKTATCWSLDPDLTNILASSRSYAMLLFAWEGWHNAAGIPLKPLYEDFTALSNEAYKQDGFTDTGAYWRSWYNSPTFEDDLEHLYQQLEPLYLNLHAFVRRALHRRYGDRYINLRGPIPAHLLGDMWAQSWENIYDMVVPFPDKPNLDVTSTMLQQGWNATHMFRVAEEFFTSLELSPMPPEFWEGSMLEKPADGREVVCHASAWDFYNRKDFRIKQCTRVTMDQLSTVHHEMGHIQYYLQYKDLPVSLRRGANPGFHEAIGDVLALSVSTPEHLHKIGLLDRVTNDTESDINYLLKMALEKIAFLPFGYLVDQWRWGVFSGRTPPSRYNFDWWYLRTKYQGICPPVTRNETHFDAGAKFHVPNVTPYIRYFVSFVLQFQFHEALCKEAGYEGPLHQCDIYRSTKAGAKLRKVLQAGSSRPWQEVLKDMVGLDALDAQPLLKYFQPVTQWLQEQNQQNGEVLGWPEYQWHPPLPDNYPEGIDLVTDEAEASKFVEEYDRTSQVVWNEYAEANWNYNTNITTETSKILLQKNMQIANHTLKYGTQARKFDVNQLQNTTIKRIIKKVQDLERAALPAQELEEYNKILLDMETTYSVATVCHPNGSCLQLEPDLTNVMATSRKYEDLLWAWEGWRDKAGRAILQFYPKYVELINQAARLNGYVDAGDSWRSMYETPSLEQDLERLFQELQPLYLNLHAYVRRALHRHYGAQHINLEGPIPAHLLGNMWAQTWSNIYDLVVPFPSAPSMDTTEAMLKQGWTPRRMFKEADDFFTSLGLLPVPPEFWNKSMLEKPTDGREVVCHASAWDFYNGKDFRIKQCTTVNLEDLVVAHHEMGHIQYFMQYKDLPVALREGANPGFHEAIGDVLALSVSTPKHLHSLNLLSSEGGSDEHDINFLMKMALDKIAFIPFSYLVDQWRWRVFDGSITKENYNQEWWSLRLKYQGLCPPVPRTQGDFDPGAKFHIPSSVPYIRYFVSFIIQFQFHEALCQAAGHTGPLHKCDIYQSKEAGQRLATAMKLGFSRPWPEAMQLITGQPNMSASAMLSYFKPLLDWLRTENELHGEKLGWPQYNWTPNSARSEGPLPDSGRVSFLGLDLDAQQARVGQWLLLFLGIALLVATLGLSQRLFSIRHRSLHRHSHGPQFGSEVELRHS

SMILES	IC50 (Neprilysin) [µM]	IC50 [1] [µM]	IC50 [2] [µM]	half-life at 10 µM [3] [h]	solubility at 24 h [4] [µM]	logD at 2 h [5]	Stability [6]
COC(=O)[C@H](CC(C)C)NC(=O)N[C@H](CO)C(=O)O (single isomer, unassigned)	> 1000	–	–	–	–	–	–
CC(C)C[C@H](CC(=O)O)C(=O)N[C@@H](CO)C(=O)O	6.31	> 31.6	> 31.6	> 24	> 200	-3.8	–
COC(=O)C(CC(C)C)C(=O)N[C@@H](CO)C(=O)O (mixture of isomers)	50.1	–	–	–	–	–	–
COC(=O)C(CC(C)C)C(=O)N[C@H](CO)C(=O)O (mixture of isomers)	> 1000	–	–	–	–	–	–
CC(C)C[C@H](CC(=O)N[C@@H](CO)C(=O)O)C(=O)O	> 1000	> 31.6	> 31.6	> 24	> 200	-3.8	–
CC(C)C[C@@H](CC(=O)O)C(=O)N[C@@H](CO)C(=O)O	0.0631	> 31.6	> 31.6	> 24	> 200	-3.7	Stable
CC(C)C[C@@H](CC(=O)N[C@@H](CO)C(=O)O)C(=O)O	0.794	> 31.6	> 31.6	> 24	> 200	-3.4	–
COC(=O)[C@@H](CC(=O)N[C@H](CO)C(=O)O)CC(C)C	> 1000	–	–	–	–	–	–
COC(=O)[C@H](CC(=O)N[C@@H](CO)C(=O)O)CC(C)C	79.4	–	–	0.1	160 (≈ 44 µg/mL)	–	–
CC(C)C[C@H]1CC(=O)N([C@@H](CO)C(=O)O)C1=O	2.51	–	–	–	–	–	Unstable
COC(=O)[C@@H](CC(=O)N[C@@H](CO)C(=O)O)CC(C)C	> 1000	–	–	–	–	–	–
COC(=O)[C@H](CC(=O)N[C@H](CO)C(=O)O)CC(C)C	> 1000	–	–	–	–	–	–
COC(=O)[C@H](CC(C)C)NC(=O)N[C@@H](CO)C(=O)O	> 1000	–	–	–	–	–	–

— ChEMBL document CHEMBL3217740, “Novel selective inhibitors of neutral endopeptidase: discovery by screening and hit-to-lead optimisation” (Medchemcomm, 2012)
